From patent publication US20230346831A1, “METHODS FOR TREATING […] USING LOW DOSE CARBON MONOXIDE” (priority 2020, published 2023)

Experiments:
Type in all cases: cell-based, human
[1] = system: MDA-MB-231 cells; assay: in vitro transwell migration assay; conditions: 16 hours
From the text: MDA-MB-231/TGL cell lines was obtained from Dr. Joan Massagué (Minn, et al, J. Clin. Invest., 115:(1), 44-55 (2005)). CM cell line was obtained from Dr. Paolo Pozzilli (S. Kobayashi et al., Oncogenesis 8, 16 (2019)). MCF7 breast cancer cells and 8988T pancreatic cancer cells were infected with viruses carrying thymidine kinase/green fluorescent protein/luciferase fusion reporter (TGL), which was obtained from Drs. Inna Serganova and Ronald Blasberg (V. Ponomarev et al., European journal of nuclear medicine and molecular imaging 31, 740-751 (2004)). GFP-positive MCF7/TGL and 8999T/TGL cells were enriched by fluorescence-activated cell sorting. H1975, lung adenocarcinoma cell line, was obtained from ATCC (Manassas, VA). […]
6.5 mm Transwell with 8.0 µm Pore Polycarbonate Membrane Insert (Corning, NY, Cat. No. 3422) was used for the cell migration assay (FIG. 1J). After 16 hours of incubation, cells migrated to the opposite side of the upper chambers were fixed with 4% paraformaldehyde, stained with 0.2% crystal violet for 30 min and counted in five fields under × 20 magnification. […] The optical density was measured at 595 nm (OD595). […]
To examine whether CO has an effect on tumor cell migration, in vitro transwell migration assays were performed. […] Cell migration through the transwell membrane along a serum gradient (Table 1) after 16 hours in the presence or absence of 250 ppm CO were measured. […]

[2] = system: MDA-MB-231 cells; assay: proliferation assay (crystal violet, OD595); conditions: 16 hours
Description: Proliferation of different cancer cells under control air or 250 ppm CO treatment with or without supplement of 30 µM hemin was determined. Indicated cell lines cell lines were seeded in the 24-well plate in normal growth media. 16 hours later, cells were fixed, stained with crystal violet, and lysed by methanol. OD595 were measured from triplicates of each cell type. Error bars represent SEM. *: P < 0.05, two-sided t-test. Scale bar, 100 µm.
6.5 mm Transwell with 8.0 µm Pore Polycarbonate Membrane Insert (Corning, NY, Cat. No. 3422) was used for the cell migration assay (FIG. 1J). After 16 hours of incubation, cells migrated to the opposite side of the upper chambers were fixed with 4% paraformaldehyde, stained with 0.2% crystal violet for 30 min and counted in five fields under × 20 magnification. In parallel, cells were seeded on 24-well plates for proliferation assay. Cells for proliferation control were fixed with 4% paraformaldehyde, stained with 0.2% crystal violet for 30 min and lysed with methanol to release the crystal violet as described by M. Feoktistova, P. Geserick, & M. Leverkus, Cold Spring Harb Protoc 2016, pdb prot087379 (2016). The optical density was measured at 595 nm (OD595). To supplement heme/hemin in the transwell migration assay, 30 µM hemin (MedChemExpress, Monmouth Junction, NJ, Cat. No. HY-19424) was added to both the cell suspension in the upper chambers and the bottom wells.
To examine whether CO has an effect on tumor cell migration, in vitro transwell migration assays were performed. […] Cell migration through the transwell membrane along a serum gradient (Table 1) after 16 hours in the presence or absence of 250 ppm CO were measured.
5 × 10^4 MDA-MB-231-TGL cells were seeded in the upper chamber of 8-µm porous polycarbonate membranes with DMEM containing 0% FBS, 0.2 mM L-glutamine and 1% penicillin/streptomycin. […] The optical density was measured at 595 nm (OD595).

[3] = system: intracellular heme/hemin levels; assay: heme colorimetric assay of intracellular heme
Description: Cells were grown to 75-80% confluence in 10-cm cell culture plates and collected in 1 ml cold PBS by cell scraper. 10 µl of the cells was transferred to a new tube for protein lysate preparation and protein concentration measurement. The rest of the cells were lysed in Heme extraction buffer (acetone: HCl: water = 25: 1.3: 5) as described by J. Hooda, M. Alam, & L. Zhang, J Vis Exp, e51579 (2015). Heme levels were measured using a heme colorimetric assay kit (BioVision, Milpitas, CA, Cat. No. K672-100) and normalized by the protein concentration of each sample.
To investigate whether 250 ppm CO induces hypoxia, HiF1α protein levels in low-dose CO-treated MCF7/TGL and MDA-MB-231/TGL cells were examined. Compared to the control cells grown in a standard tissue culture incubator, HiF1α protein levels were not changed after 250 ppm CO treatment for 16 hours (FIG. 4A). To identify genes and pathways that were affected by 250 ppm CO, RNA-Seq and gene set enrichment analysis (GESA) of MCF7 and MDA-MB-231 cells were performed after 16 hours in a CO incubator or in a regular cell culture incubator. […] To assess the intracellular heme levels affected by low-dose CO treatment, oxidized heme levels in the form of hemin (Fe^3+ state) were measured because free heme (Fe^2+ state) is readily oxidized and cannot be measured. […]

Compound | cell migration through the transwell membrane ([1]; MDA-MB-231 cells, 250 ppm CO, serum gradient, vs control air) | inhibitory effect on MDA-MB-231 cell proliferation by seeding density ([2]; CO, higher density (6.25 × 10^4 or 12.5 × 10^4 cells per 24-well) compared with lower density (3.125 × 10^4 cells per 24-well)) | cell proliferation ([2]; MDA-MB-231 cells, 250 ppm CO, vs control air) | intracellular heme/hemin levels ([3]; MCF7 and MDA-MB-231 cells, 250 ppm CO) | cell migration inhibited by 250 ppm CO (reversal by hemin) ([1]; MDA-MB-231/TGL cells, 30 µM hemin in upper and lower chambers + 250 ppm CO) | cancer cell proliferation with hemin supplement ([2]; MDA-MB-231/TGL cells, 30 µM hemin, with or without 250 ppm CO) | intracellular heme levels with hemin supplement ([3]; 30 µM hemin in the medium, CO-treated cells)
[C-]#[O+] [CO, Carbon monoxide] | significantly reduced | greater inhibitory effect | did not affect | significantly reduced |  |  | 
Hemin [reference compound] |  |  |  |  | significantly reversed | did not alter | increased
